Assay results taken from patent publication US11026943B2, “Aminoquinoline derivatives and uses thereof” (UNIVERSITY OF DELHI, priority 2012, dated 2021).

Tests used:
[1] = biological target: Nurr1 LBD (Mus musculus, UniProt Q06219); experiment: Surface plasmon resonance (BIAcore) binding, Nurr1-LBD
Description: Binding experiments were performed with the surface Plasmon Resonance-based biosensor instrument BIAcore 3000 (BIAcore AB, Uppsala). Immobilization of the purified proteins on the sensor surface was performed following the standard amine coupling procedure according to manufacturer's instructions. The final immobilization response of each protein was 6000 resonance units. A reference surface was generated simultaneously under the same conditions with BSA and used as a blank to correct for instrument and buffer artifacts. AQ and kanamycin were injected at variable concentrations at 20 μl/min flow rate, and binding to the protein immobilized on the chip was monitored in real-time. […] Binding data were analyzed using the BIAcore 3000 CONTROL® software and the BIAEVALUATION® software.
To investigate whether AQ and CQ physically interact with Nurr1's LBD, the inventors purified the Nurr1 LBD polypeptide (amino acid 328-598) and analyzed their physical binding using the Biacore S51 SPR sensor, which has a higher sensitivity and improved fluidics, enabling the monitoring of small signal changes derived from binding of compounds to proteins.

[2] = system: Nurr1 recruitment to TH promoter NL1 and NL3; experiment: Chromatin immunoprecipitation in PC12 cells; assay type: cell-based, rat; details: 20 μM AQ or 75 μM CQ for 15 hrs
Description: Error bars represent standard deviations.
Cells were washed with PBS, fixed with 1% formaldehyde, lysed, and sonicated according to the manufacturer's instruction (Active Motif). 25 μg of soluble chromatin DNA were co-immunoprecipitated 1 μg of Nurr1 specific antibody (E-20, Santa Cruz) or control antibody (rabbit IgG, santa Cruz). […] Values are shown as fold induction compared to mock treated control cells.

[3] = system: aphakia (ak/ak) mice; experiment: Behavioral studies in ak/ak mice (Pole, Challenging Beam, Cylinder, Rotarod) and SN histology; assay type: in vivo, mouse
Description: Either 20 mg/kg of AQ (AQ group) or the saline (Saline group) was intraperitoneally injected (I.P.) twice per day for two weeks. 8 mg/kg of L-DOPA (L-DOPA group) in 0.5% DMSO was injected (I.P.) once per day for two weeks. The L-DOPA group was given 12.5 mg/kg benserazide 20 min prior to administration of L-DOPA.
Each ak mouse was randomly assigned into one of three experiment groups, (1) saline group (negative control; n=8), (2) L-DOPA group (positive control; n=8), (3) AQ group (n=10). Each WT or rdl mouse was randomly divided into two groups, (1) saline group (n=8) and (2) AQ group (n=10). Pole Test, Challenging Beam Traversal Test, and Cylinder Test were performed at two time points, immediately and one month after two weeks of either AQ or saline injection. Each mouse ran each task twice. Rota rod test was performed immediately after two weeks of either drug or saline injection. Acclimation and data recording process were identical to the rat study described above. All tasks were performed as described previously^11 and the short description of each task is as follows.
A vertical wooden pole 50 cm in length and 1 cm in diameter was used for Pole Test. Each mouse was gently placed head upwards on top of the pole which is placed on each animal's home cage. Each mouse ran tree trials per session during 2 training sessions. On the testing day, mice ran three trials. Two parameters (the meantime to orient downward and the total travel mean time) were used for the statistical analysis.
A 1 m length of plastic beam was used for Challenging Beam Traversal Test. The starting width of the beam was 3.5 cm and it gradually narrowed in 1 c increments to 0.5 cm at the other end site of the beam. Animals were trained to walk from the wide end to the other end for 2 sessions, three trials per session before testing. A mesh grid was removed during the training period. On the testing day, a mesh grid (1 cm square) covering the beam surface was equipped leaving a […] room between the grid and the beam surface. On the testing day, mice ran three trials. Two parameters (the mean number of steps taken by each animal and the mean time to traverse across three trials) were collected and used for statistical analysis.
A small transparent cylinder (height, 15.5 cm; diameter, 12.7 cm) was used to evaluate somatosensory motor function. Mice were placed in the cylinder and their rears were counted for 5 minutes. The forelimb touching the Plexiglas wall (a vertical movement) is defined as a full rear. The mean number of forelimb use was calculated for the statistical analysis. […]
The Rota rod equipment (Med-Associates, Inc, Albans, Vt., USA) was used to measure motor coordination. […] The mean latency to fall off from the Rota rod was measured for the statistical analysis. […]

[4] = biological target: T1, Nurr1 (Mus musculus, UniProt Q06219); experiment: High-throughput cell-based screen of Nurr1-dependent TH promoter activation; details: library of 960 FDA-approved drugs
T1 construct: Full-length mouse Nurr1cDNA was amplified by RT-PCR from pSV40Nurr1; expressed in transfected cells; host or cells: SK-N-BE(2)C human neuroblastoma cells
T1 sequence (Q06219 whole entry): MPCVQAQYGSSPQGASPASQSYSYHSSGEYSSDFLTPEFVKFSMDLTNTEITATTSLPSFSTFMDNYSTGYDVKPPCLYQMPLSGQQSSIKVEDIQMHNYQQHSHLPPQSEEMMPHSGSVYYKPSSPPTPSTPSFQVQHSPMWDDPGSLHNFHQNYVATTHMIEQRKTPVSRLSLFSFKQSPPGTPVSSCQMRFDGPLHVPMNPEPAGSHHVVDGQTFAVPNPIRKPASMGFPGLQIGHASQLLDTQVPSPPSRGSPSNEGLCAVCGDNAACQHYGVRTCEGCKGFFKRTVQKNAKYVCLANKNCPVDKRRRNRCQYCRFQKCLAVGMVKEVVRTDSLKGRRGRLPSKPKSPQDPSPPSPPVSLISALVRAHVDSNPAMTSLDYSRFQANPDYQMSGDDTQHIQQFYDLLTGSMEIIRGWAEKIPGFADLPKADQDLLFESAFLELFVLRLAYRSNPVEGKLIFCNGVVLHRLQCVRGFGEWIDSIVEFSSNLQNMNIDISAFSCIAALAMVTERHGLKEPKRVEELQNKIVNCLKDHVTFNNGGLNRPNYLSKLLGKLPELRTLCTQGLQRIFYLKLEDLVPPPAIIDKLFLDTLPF
Description: The pTH2600LUC reporter construct contains the 2.6 kb upstream sequences of the rat tyrosine hydroxylase gene in front of a firefly luciferase gene in pGL3-basic vector. A Nurr1-expression plasmid, pSV40Nurr1, was kindly provided by Dr Orla M. Conneely at Baylor College of Medicine (Houston, Tex., USA). Full-length mouse Nurr1cDNA was amplified by RT-PCR from pSV40Nurr1 using forward 5′-[sequence]-3′ (SEQ ID NO: 1) and reverse 5′-[sequence]-3′ (SEQ ID NO: 2) oligonucleotides.
Human neuroblastoma SK-N-BE(2)C cells were maintained in Dulbecco's modified Eagle's medium (DMEM) supplemented with 10% fetal bovine serum. All culture media contained 100 units/ml penicillin and 100 μg/ml streptomycin. For transfection, cells were plated at 1.5×10^5 cells/well in the DMEM media without antibiotic into 24-well plates 1 day prior to transfection. Transfections were carried out by the Lipofectamine plus (Invitrogen) according to the manufacture's protocol. Total DNA amount was 0.5 μg per well with 0.1 μg of pRSV-β-gal as an internal control. 6 hours after transfection, compounds in the DMEM media with 1% charcoal-stripped fetal calf serum was added and incubated overnight. […] Then equal volume of firefly luciferase substrate was added and the luciferase activity was measured using a Luminometer plate reader and normalized for beta-galactosidase activity.

Chain of Nurr1 LBD (Q06219 328-598): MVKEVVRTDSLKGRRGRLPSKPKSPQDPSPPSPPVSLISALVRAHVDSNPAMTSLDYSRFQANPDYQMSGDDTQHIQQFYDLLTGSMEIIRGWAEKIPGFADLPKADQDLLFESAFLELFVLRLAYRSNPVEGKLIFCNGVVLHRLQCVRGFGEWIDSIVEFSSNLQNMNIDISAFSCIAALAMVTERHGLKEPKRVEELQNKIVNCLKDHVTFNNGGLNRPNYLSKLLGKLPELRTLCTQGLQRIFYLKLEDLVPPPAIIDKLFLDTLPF

Compound: CCN(CC)Cc1cc(Nc2ccnc3cc(Cl)ccc23)ccc1O [AQ, amodiaquine]
- binding to Nurr1-LBD (SPR) [1]: specifically bound
- Nurr1 recruitment to NL1 and NL3 sites of the TH promoter [2]: recruited to both NL1 and NL3 sites
- motor deficits in Pole, Challenging Beam, Cylinder and Rotarod tests ([3]; 2 weeks of AQ 20 mg/kg i.p. twice per day): significantly improved
- activated microglia (CD11b) in the SN ([3]; after AQ for 2 weeks): reduced to the level of wild type mice
- number of TH+ neurons in ak/ak mice ([3]; data not shown): not detectably altered
- screen outcome [4]: hit compounds
